{"source": "patent US8759535B2", "about": "“Substituted fused imidazole derivatives, pharmaceutical compositions, and methods of use thereof” (High Point Pharmaceuticals, LLC, priority 2010, dated 2014)", "data": [{"test_system": "HMOX1", "test": "HMOX1 Protein Assay (immunostaining of HO-1 in NHLF cells, GE InCell 1000)", "assay_type": "cell-based", "conditions": "Homo sapiens, fold change above DMSO treated cells, 3 μM compound (asterisk), 16 h", "outline": "(§1)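 NHLF cells seeded overnight in FGM-2, then exposed to compound or DMSO vehicle for 16 h, fixed, and immunostained for HO-1 with Hoechst nuclear counterstain; imaged on InCell 1000. Values are fold change over DMSO-treated cells, generally at 5 μM (0.8% DMSO), with asterisked entries at 3 μM.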", "values": [{"smiles": "CN1CCN(CCCNC(=O)c2ccc3c(c2)nc(Nc2nc4ccc(OC(F)(F)F)cc4s2)n3C)CC1", "note": "[Example 355, 1-Methyl-2-(6-trifluoromethoxy-benzothiazol-2-ylamino)-1H-benzoimidazole-5-carboxylic acid [3-(4-methyl-piperazin-1-yl)-propyl]-amide]", "fold induction at 3 µM": 26}, {"smiles": "C[C@H](CO)OCCNC(=O)c1ccc2c(c1)nc(Nc1nc3ccc(Cl)cc3s1)n2C", "note": "[Example 243, 2-(6-Chloro-benzothiazol-2-ylamino)-1-methyl-1H-benzoimidazole-5-carboxylic acid [2-((R)-2-hydroxy-1-methyl-ethoxy)-ethyl]-amide]", "fold induction at 3 µM": 15.2}, {"smiles": "COC(C)(C)CNC(=O)c1ccc2c(c1)nc(Nc1nc3ccc(Cl)cc3s1)n2C", "note": "[Example 207, 2-(6-Chloro-benzothiazol-2-ylamino)-1-methyl-1H-benzoimidazole-5-carboxylic acid (2-methoxy-2-methyl-propyl)-amide]", "fold induction at 3 µM": 11.8}, {"smiles": "CN(C)C(=O)CCNC(=O)c1ccc2c(c1)nc(Nc1nc3ccc(Cl)cc3s1)n2C", "note": "[Example 371, 2-(6-Chloro-benzothiazol-2-ylamino)-1-methyl-1H-benzoimidazole-5-carboxylic acid (2-dimethylcarbamoyl-ethyl)-amide]", "fold induction at 3 µM": 29}]}, {"test_system": "HMOX1", "test": "HMOX1 Protein Assay (immunostaining of HO-1 in NHLF cells, GE InCell 1000)", "assay_type": "cell-based", "conditions": "Homo sapiens, fold change above DMSO treated cells, 5 μM compound, 16 h", "outline": "as §1", "values": [{"smiles": "COCCNC(=O)c1ccc2c(c1)nc(Nc1nc3cc(F)c(F)cc3s1)n2C", "note": "[Example 37, 2-(5,6-Difluoro-benzothiazol-2-ylamino)-1-methyl-1H-benzoimidazole-5-carboxylic acid (2-methoxy-ethyl)-amide]", "fold induction at 5 µM": 16.4}, {"smiles": "Cn1c(Nc2nc3ccc(OC(F)(F)F)cc3s2)nc2cc(C(=O)NCC(=O)N3CCC(CO)CC3)ccc21", "note": "[Example 441, 1-Methyl-2-(6-trifluoromethoxy-benzothiazol-2-ylamino)-1H-benzoimidazole-5-carboxylic acid [2-(4-hydroxymethyl-piperidin-1-yl)-2-oxo-ethyl]-amide]", "fold induction at 5 µM": 73.6}, {"smiles": "CC(C)n1c(Nc2nc3ccc(OC(F)(F)F)cc3s2)nc2cc(C(=O)O)ccc21", "note": "[Example 159, 1-Isopropyl-2-(6-trifluoromethoxy-benzothiazol-2-ylamino)-1H-benzoimidazole-5-carboxylic acid]", "fold induction at 5 µM": 26.7}, {"smiles": "COCCn1c(Nc2nc3ccc(Cl)cc3s2)nc2cc(C(=O)NCC(=O)N3CC[C@H](O)C3)ccc21", "note": "[Example 405, 2-(6-Chloro-benzothiazol-2-ylamino)-1-(2-methoxy-ethyl)-1H-benzoimidazole-5-carboxylic acid [2-((S)-3-hydroxy-pyrrolidin-1-yl)-2-oxo-ethyl]-amide]", "fold induction at 5 µM": 21.4}, {"smiles": "COCCNC(=O)c1ccc2c(c1)nc(Nc1nc3ccc(S(C)(=O)=O)cc3s1)n2C", "note": "[Example 127, 2-(6-Methanesulfonyl-benzothiazol-2-ylamino)-1-methyl-1H-benzimidazole-5-carboxylic acid (2-methoxy-ethyl)-amide]", "fold induction at 5 µM": 12.4}, {"smiles": "CCNC(=O)c1ccc2c(c1)nc(Nc1nc3ccc(Cl)cc3s1)n2C", "note": "[Example 32, 2-(6-Chloro-benzothiazol-2-ylamino)-1-methyl-1H-benzoimidazole-5-carboxylic acid ethylamide]", "fold induction at 5 µM": 12.6}, {"smiles": "Cn1c(Nc2nc3ccc(OC(F)(F)F)cc3s2)nc2cc(C(=O)N[C@@H]3[C@@H](O)[C@H](O)[C@@H](CO)O[C@@H]3O)ccc21", "note": "[Example 283, 1-Methyl-2-(6-trifluoromethoxy-benzothiazol-2-ylamino)-1H-benzoimidazole-5-carboxylic acid ((2S,3R,4R,5S,6R)-2,4,5-trihydroxy-6-hydroxymethyl-tetrahydro-pyran-3-yl)-amide]", "fold induction at 5 µM": 30.2}, {"smiles": "Cn1c(Nc2nc3ccc(OC(F)(F)F)cc3s2)nc2cc(C(=O)NC[C@@H](O)CO)ccc21", "note": "[Example 281, 1-Methyl-2-(6-trifluoromethoxy-benzothiazol-2-ylamino)-1H-benzoimidazole-5-carboxylic acid ((R)-2,3-dihydroxy-propyl)-amide]", "fold induction at 5 µM": 35.6}, {"smiles": "Cn1c(Nc2nc3ccc(OC(F)(F)F)cc3s2)nc2ccc(C(=O)NCCOCCO)cc21", "note": "[Example 286, 3-Methyl-2-(6-trifluoromethoxy-benzothiazol-2-ylamino)-3H-benzoimidazole-5-carboxylic acid [2-(2-hydroxy-ethoxy)-ethyl]-amide]", "fold induction at 5 µM": 61.1}, {"smiles": "Cn1c(Nc2nc3ccc(OC(F)(F)F)cc3s2)nc2cc(C(=O)NCCCS(C)(=O)=O)ccc21", "note": "[Example 110, 1-Methyl-2-(6-trifluoromethoxy-benzothiazol-2-ylamino)-1H-benzimidazole-5-carboxylic acid (3-methanesulfonyl-propyl)-amide]", "fold induction at 5 µM": 26.3}, {"smiles": "Cn1c(Nc2nc3ccc(OC(F)(F)F)cc3s2)nc2cc(C(=O)NCCNC(=O)OC(C)(C)C)ccc21", "note": "[Example 103, (2-{[1-Methyl-2-(6-trifluoromethoxy-benzothiazol-2-ylamino)-1H-benzoimidazole-5-carbonyl]-amino}-ethyl)-carbamic acid tert-butyl ester]", "fold induction at 5 µM": 9}, {"smiles": "CCNC(=O)c1ccc2c(c1)nc(Nc1nc3ccc(OC(F)(F)F)cc3s1)n2C(C)C", "note": "[Example 161, 1-Isopropyl-2-(6-trifluoromethoxy-benzothiazol-2-ylamino)-1H-benzoimidazole-5-carboxylic acid ethylamide]", "fold induction at 5 µM": 19.1}, {"smiles": "Cn1c(Nc2nc3ccc(Cl)cc3s2)nc2cc(C(=O)NCC(=O)NCCS(C)(=O)=O)ccc21", "note": "[Example 383, 2-(6-Chloro-benzothiazol-2-ylamino)-1-methyl-1H-benzoimidazole-5-carboxylic acid [(2-methanesulfonyl-ethylcarbamoyl)-methyl]-amide]", "fold induction at 5 µM": 16.4}, {"smiles": "Cn1c(Nc2nc3ccc(OC(F)(F)F)cc3s2)nc2cc(C(=O)NC3(C(=O)O)CC3)ccc21", "note": "[Example 147, 1-{[1-Methyl-2-(6-trifluoromethoxy-benzothiazol-2-ylamino)-1H-benzimidazole-5-carbonyl]-amino}-cyclopropanecarboxylic acid]", "fold induction at 5 µM": 1.8}, {"smiles": "COC(=O)CNC(=O)c1ccc2c(c1)nc(Nc1nc3ccc(OC(F)(F)F)cc3s1)n2C", "note": "[Example 79, {[1-Methyl-2-(6-trifluoromethoxy-benzothiazol-2-ylamino)-1H-benzoimidazole-5-carbonyl]-amino}-acetic acid methyl ester]", "fold induction at 5 µM": 17.6}, {"smiles": "Cn1c(Nc2nc3ccc(OC(F)(F)F)cc3s2)nc2cc(C(=O)NC[C@H]3CC[C@H](CO)CC3)ccc21", "note": "[Example 254, 1-Methyl-2-(6-trifluoromethoxy-benzothiazol-2-ylamino)-1H-benzoimidazole-5-carboxylic acid (trans-4-hydroxymethyl-cyclohexylmethyl)-amide]", "fold induction at 5 µM": 47.4}, {"smiles": "Cn1c(Nc2nc3ccc(S(C)(=O)=O)cc3s2)nc2cc(C(=O)O)ccc21", "note": "[Example 119, 2-(6-Methanesulfonyl-benzothiazol-2-ylamino)-1-methyl-1H-benzimidazole-5-carboxylic acid]", "fold induction at 5 µM": 22.1}, {"smiles": "Cn1c(Nc2nc3ccc(OC(F)(F)F)cc3s2)nc2cc(C(=O)NCC#N)ccc21", "note": "[Example 211, 1-Methyl-2-(6-trifluoromethoxy-benzothiazol-2-ylamino)-1H-benzoimidazole-5-carboxylic acid cyanomethyl-amide]", "fold induction at 5 µM": 46.1}]}]}
